Where a name gives a salt, the structure may show the parent alone.
How the values were obtained:
Format in all cases: cell-based
[1] = tested on: Escherichia coli (Migula1895) Castellani and Chalmers 1919AL, ATCC10536; assay: Kirby-Bauer Disk Diffusion method, Escherichia coli reference strain; details: for inhibition zone: 25-41-52-41°C
Source text: The culture medium is Nutrient agar (Oxoid CM3) in g/litre Lab-Lemco beef extract 1; Yeast extract 2; Peptone 5; NaCl 5; Agar 15; pH7.4
(§1) For experimental purposes, the antimicrobial activities of the antibiotic standard solution of known concentration, of the yeasts within their incorporation broth after the methods steps, of the supernatants collected by centrifugation and of the pellets of the centrifuged yeasts, after each washing cycle, were compared, using a Kirby-Bauer Disk Diffusion method.
(§2) Sterile filter or blotter paper disks were laid down on the gelose, humidified with PBS 3 µl. 6 to 12µl of each above-mentioned fraction were then sucked into the blotting paper disk.

[2] = tested on: Lactobacillus paracasei subsp. paracasei; assay: Kirby-Bauer Disk Diffusion method, Lactobacillus paracasei reference strain
Source text: Lactobacillus paracasei subsp. paracasei Collins, Phillips and Zanoni 1989 VP, type strain of Lactobacillus casei subsp. pseudoplantarum, came from the BCCM-LMG Bacteria collection, accession number 9192, ATCC 25598, depositor NCIMB. Lactobacillus kefiri Kandler and Kunath 1983VL, BCCM-LMG Bacteria collection, accession number 9480, ATCC 35411. A modified Man, Rogosa, Sharpe medium has been used for the Lactobacillus kefiri and for Lactobacillus paracasei culture, as a reference strain for antibiotic activity of the yeast strains: the composition (g/liter) peptone 10.0; meat extract 8.0; yeast extract 4.0; glucose 20.0; orthophosphate 2.0; magnesium sulphate heptahydrate 0.2; manganese sulphate tetrahydrate 0.05; ferrous sulphate 0.01; agar 10.0 The pH is adjusted to 6.2 with acetic acid.
as §1
(§3) The selected reference strains were Streptococcus pyogenes Rosenbach1884AL (BCCM-LMG 21599) or Lactobacillus paracasei subsp. paracasei Collins, Phillips and Zanoni 1989 VP (BCCM-LMG 9192).
(§4) The streptococci or lactobacilli reference strains populations were counted in a Neubauer cell, and then diluted in PBS so as to obtain 2 million germs in one ml buffer: 0.5 ml of the diluted culture medium were then streaked on the agar plates. Another method for obtaining the suitable density of reference bacteria is the culture medium dilution in PBS so as to obtain with a filter photometer, an optical density of 0.04 at 620nm.
as §2

[3] = tested on: Streptococcus pyogenes or Lactobacillus paracasei; assay: Kirby-Bauer Disk Diffusion method, reference strain not stated for the experiment; details: Saccharomyces bayanus Lalvin, red grape juice + Potato Plus Juice, clarithromycin 2mg/ml, pH 4.0
Source text: as §1, §3, §4, §2

[4] = tested on: Streptococcus pyogenes Rosenbach 1884AL, ATCC12344; assay: Kirby-Bauer Disk Diffusion method, Streptococcus pyogenes reference strain; details: for inhibition zone diameter: Saccharomyces Lalvin
Source text: Streptococcus pyogenes Rosenbach 1884AL, ATCC12344 comes from the BCCM-LMG Bacteria collection, accession number 21599, laboratorium voor microbiologie, UGent, B-9000 Gent. The culture medium is Brain Heart Infusion Broth of typical composition (g/litre) (brain extract, heart extract and peptones 27.5; D+glucose 2.0; sodium chloride 5.0; di-sodium hydrogen phosphate 2.5; agar-agar (not present in the broth) 15.0. Brain Heart Infusion Agar was purchased from Oxoid CM 0375. The medium may be enriched with a sterilized horse serum from defibrinated horse blood for 20 % of global volume. Brain Heart Infusion SM 225 from Oxoid may also be employed for streptococcus culture broth.
as §1, §3, §4, §2

SMILES: NCC[C@H](O)C(=O)N[C@@H]1C[C@H](N)[C@@H](O[C@H]2O[C@H](CN)[C@@H](O)[C@H](O)[C@H]2O)[C@H](O)[C@H]1O[C@H]1O[C@H](CO)[C@@H](O)[C@H](N)[C@H]1O [Amikacine sulfate standard in TBS, Amikacine sulphate]
- inhibition zone ([1]; Kluyveromyces marxianus, red grape juice + potatoes juice with selenium, Amukin 1mg/ml, pH 4.0, violet photoinduction): 26.5 mm

SMILES: CC[C@H]1OC(=O)[C@H](C)[C@@H](O[C@H]2C[C@@](C)(OC)[C@@H](O)[C@H](C)O2)[C@H](C)[C@@H](O[C@@H]2O[C@H](C)C[C@H](N(C)C)[C@H]2O)[C@](C)(OC)C[C@@H](C)C(=O)[C@H](C)[C@@H](O)[C@]1(C)O [Clarithromycin standard (2mg/ml), clarithromycin]
- inhibition zone diameter ([2]; Saccharomyces Lalvin, YPD broth pH 6.5, clarithromycin 2mg/ml, experiment with lethal heat stress 25-34-55-34-25°C): 40.5 mm
- inhibition zone ([2]; Saccharomyces Lalvin, clarithromycin 2mg/ml, pH 4.0, 25-41-43-35-25°C): 41 mm
- inhibition zone ([2]; Saccharomyces Lalvin, clarithromycin 2mg/ml, pH 4.0, 25-41-45-35-25°C): 41 mm
- inhibition zone ([2]; Saccharomyces Lalvin, clarithromycin 2mg/ml, pH 4.0, 25-41-47-35-25°C): 38.5 mm
- inhibition zone ([2]; Saccharomyces Lalvin, clarithromycin 2mg/ml, pH 4.0, 25-41-49-35-25°C): 40 mm
- inhibition zone ([2]; Saccharomyces Lalvin, clarithromycin 2mg/ml, pH 4.0, 25-41-51-35-25°C): 40 mm
- inhibition zone ([2]; Saccharomyces Lalvin, clarithromycin 2mg/ml, pH 4.0, 25-41-53-35-25°C): 40 mm
- inhibition zone ([2]; Saccharomyces Lalvin, clarithromycin 2mg/ml, pH 4.0, 25-41-54-35-25°C): 40 mm
- inhibition zone ([2]; Saccharomyces Lalvin, red grape juice + Potato Plus Juice, clarithromycin 2mg/ml, pH 4.0, 25-41-41-35-25°C (upper plate 41°C)): 41 mm
- inhibition zone diameter ([2]; Saccharomyces Lalvin, red grape juice + raw potatoes juice with selenium, clarithromycin 2mg/ml, pH 4.0, 25-41-52-41-35-25°C, 8µl on disk): 38 mm
- inhibition zone ([2]; Saccharomyces bayanus Lalvin QA23, red grape juice + raw potatoes juice with selenium, clarithromycin 2mg/ml, pH 4.0, 25-41-52-41-35°C, skullcap extract after 35°C plate): 42 mm
- inhibition zone ([2]; Saccharomyces bayanus Lalvin, clarithromycin 2mg/ml, pH 6.5, after sequence 25-41-52-41-35-25°C (last thermal plate), 8µl): 38.5 mm
- inhibition zone ([2]; Saccharomyces bayanus Lalvin, medium a: red grape juice + Potato Plus Juice, clarithromycin 2mg/ml, pH 4.0, 25-41-52-41-35-25°C, violet photoinduction): 39.5 mm
- inhibition zone ([2]; Saccharomyces bayanus Lalvin, medium c: red grape juice + Potato Plus Juice + spelt wheat hydrolysate, clarithromycin 2mg/ml, pH 6.5, 25-41-52-41-35-25°C, violet photoinduction): 36.5 mm
- inhibition zone ([3]; after sequence 25-35-52-41°C (last thermal plate)): 42 mm
- inhibition zone ([3]; after sequence 25-39-52-41°C (last thermal plate)): 42 mm
- inhibition zone in diameter ([4]; Kluyveromyces marxianus + Lactobacillus kefiri, red grape juice + sweet potatoes juice with selenium, clarithromycin, pH 4.0, 25-41-52-41°C, violet photoinduction): 47 mm
- inhibition zone diameter ([4]; YPD broth pH 6.5, clarithromycin 2mg/ml, simplified sequence 25-37-25°C (mild heat stress)): 38 mm
- inhibition zone diameter ([4]; red grape juice + raw potatoes juice with selenium, clarithromycin 2mg/ml, pH 4.0, thermal plates 25-41-52-41-35-25°C, 8µl on disk): 37 mm

SMILES: CC[C@H]1OC(=O)[C@H](C)[C@@H](O[C@H]2C[C@@](C)(OC)[C@@H](O)[C@H](C)O2)[C@H](C)[C@@H](O[C@@H]2O[C@H](C)C[C@H](N(C)C)[C@H]2O)[C@](C)(O)C[C@@H](C)C(=O)[C@H](C)[C@@H](O)[C@]1(C)O [Erythromycin standard (2mg/ml), Erythromycin]
- inhibition zone ([4]; Saccharomyces bayanus Lalvin, red grape juice + alkaline hydrolyzed spelt wheat flour + parsley juice, erythromycin 1mg/ml, pH 7.0, 25-41-52-41-35-25°C, violet photoinduction, BHI agar with defibrinated horse blood): 48 mm

SMILES: CS(=O)(=O)c1ccc([C@@H](O)[C@@H](CF)NC(=O)C(Cl)Cl)cc1 [Florfenicol]
- inhibition zone ([1]; Saccharomyces bayanus Lalvin and Saccharomyces cerevisiae combined, red grape juice medium, florfénicol 2mg/ml, pH 7.5, 20µl deposit): 39 mm

SMILES: O=C1CN(/N=C/c2ccc([N+](=O)[O-])o2)C(=O)N1 [Standard nitrofurantoin in DMSO, 1mg/ml, Nitrofurantoin]
- Inhibition zone diameters ([1]; 20µl deposits, Saccharomyces cerevisiae bayanus Lalvin QA23, nitrofurantoin, pH around 7.0, 90minutes 41°C, 60minutes 52°C): 32 mm

Reference: patent publication EP2813566A1, “Method for incorporating a compound into live yeast cells” (priority 2013, dated 2014)
